Drawing on patent publication US20110313156A1 (BOEHRINGER INGELHEIM INTERNATIONAL GMBH, priority 2008, published 2011), this text covers remaining activity for 24 molecules.

Molecules are shown by their SMILES.

The assay deals with T1, His6-PDK1 (aa 52-556) (Homo sapiens, UniProt O15530).
T1 construct: 15 μL His6-PDK1 (aa 52-556) 3.33 ng/well); host or cells: baculovirus-infected insect cells
T1 sequence (O15530 52-556): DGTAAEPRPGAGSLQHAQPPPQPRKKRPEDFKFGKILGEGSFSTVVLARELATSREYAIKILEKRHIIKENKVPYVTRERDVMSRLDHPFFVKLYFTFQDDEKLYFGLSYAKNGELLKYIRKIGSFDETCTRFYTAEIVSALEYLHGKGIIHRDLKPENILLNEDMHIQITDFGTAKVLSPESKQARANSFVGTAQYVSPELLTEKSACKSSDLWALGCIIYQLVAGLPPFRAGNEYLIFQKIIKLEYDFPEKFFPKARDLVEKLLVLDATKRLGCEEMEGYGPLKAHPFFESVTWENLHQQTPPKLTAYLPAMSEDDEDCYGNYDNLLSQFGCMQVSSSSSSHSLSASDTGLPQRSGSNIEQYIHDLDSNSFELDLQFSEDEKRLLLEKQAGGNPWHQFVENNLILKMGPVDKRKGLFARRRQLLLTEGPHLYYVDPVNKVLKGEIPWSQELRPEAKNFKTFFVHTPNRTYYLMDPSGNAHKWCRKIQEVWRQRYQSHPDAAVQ
Kind of assay: PDK1 kinase assay III (with Tween 20). Format: biochemical. To be noted: compound at 10 μM; PDK1 kinase assay III (values without asterisk); read-out: % CTL (residual activity of the enzyme relative to DMSO control). Here is the method: Purified enzyme may be obtained for example from the University of Dundee, Scotland.
Another PDK1 assay was developed which by comparison with PDK1 assay 1 additionally contains Tween 20:
The final concentration of Tween 20 is 0.005%.
The reaction is started by adding the ATP solution and the mixture is incubated for 90 min at ambient temperature; at the start of the reaction the dishes are shaken gently. The reaction is stopped by the addition of 50 μL/well of 500 mM phosphoric acid (H3PO4) and incubated for about 20 min at ambient temperature. […] The measured data are evaluated using Graphpad Prism software.
The % CTL values indicate the residual activity of the enzyme after the addition of the inhibitory compound in the solvent DMSO in relation to the enzyme activity in the solvent DMSO without the addition of a compound (control). The majority of the values were determined using the PDK1 kinase assay III described hereinbefore. The values marked with an asterisk (* or**) were determined using the PDK1 kinase assay II described hereinbefore (one asterisk→incubation for 24 h; two asterisks→incubation for 5 min)
For `Cc1c(C(=O)NCC#Cc2ccc3nc(Nc4ccc(C(=O)NC5CCN(C)CC5)cc4)ncc3c2)c(=O)n(Cc2ccc(F)c(F)c2)n1C`, the remaining activity at 10 µM was determined as 11.6%.
Turning to `COC(=O)c1ccc(Nc2ncc3cc(C#CCNC(=O)c4c(C)n(C)n(Cc5ccc(F)c(F)c5)c4=O)ccc3n2)cc1` [III-46, methyl-4-({6-[3-({[2-(3,4-difluorobenzyl)-1,5-dimethyl-3-oxo-2,3-dihydro-1H-pyrazol-4-yl]carbonyl}amino)prop-1-yn-1-yl]quinazolin-2-yl}amino)benzoate], the remaining activity at 10 µM is 21%.
In the case of `COCCCN(C)C(=O)c1ccc(Nc2ncc3cc(C#CCNC(=O)c4cncn(Cc5ccc(F)c(F)c5)c4=O)ccc3n2)cc1` [III-104] it was 15.8%; in that of `CN(C)Cc1ccc(-c2n[nH]c3cc(C#CCNC(=O)c4cncn(Cc5ccc(F)c(F)c5)c4=O)ccc23)cc1` [II-9, 1-(3,4-difluorobenzyl)-N-[3-(3-{4-[(dimethylamino)methyl]phenyl}-1H-indazol-6-yl)prop-2-yn-1-yl]-6-oxo-1,6-dihydropyrimidine-5-carboxamide], 10.7%.
The value for `O=C1Nc2cc(C#CCNC(=O)c3cncn(Cc4ccc(F)c(F)c4)c3=O)ccc2/C1=C/c1cnc[nH]1` [I-44, 1-(3,4-difluorobenzyl)-N-{3-[(3Z)-3-(1H-imidazol-5-ylmethylidene)-2-oxo-2,3-dihydro-1H-indol-6-yl]prop-2-yn-1-yl}-6-oxo-1,6-dihydropyrimidine-5-carboxamide] was 15.6%.
With `COCCCN(C)C(=O)c1ccc(Nc2ncc3cc(C#CCNC(=O)c4c(C)n(C)n(Cc5ccc(F)c(F)c5)c4=O)ccc3n2)cc1`, the remaining activity at 10 µM stood at 16%.
With `Cc1c(C(=O)NC/C=C/c2ccc3nc(Nc4ccc(CN(C)C)cc4)ncc3c2)c(=O)n(Cc2ccc(F)c(F)c2)n1C` [IV-21, 2-(3,4-difluorobenzyl)-N-{(2E)-3-[2-({4-[(dimethylamino)methyl]phenyl}amino)-quinazolin-6-yl]prop-2-en-1-yl}-1,5-dimethyl-3-oxo-2,3-dihydro-1H-pyrazole-4-carboxamide], the remaining activity at 10 µM is 11.2%.
Turning to `O=C(NC/C=C/c1ccc2nc(Nc3ccccc3)ncc2c1)c1cncn(Cc2ccc(F)c(F)c2)c1=O` [IV-62], the remaining activity at 10 µM was determined as 19.1%.
Regarding `Cc1c(C(=O)NC/C=C/c2ccc3nc(Nc4ccc(CN(C)C)cc4)ncc3c2)c(=O)n(Cc2cc(F)c(F)c(F)c2)n1C` [IV-20, N-{(2E)-3-[2-({4-[(dimethylamino)methyl]phenyl}amino)quinazolin-6-yl]prop-2-en-1-yl}-1,5-dimethyl-3-oxo-2-(3,4,5-trifluorobenzyl)-2,3-dihydro-1H-pyrazole-4-carboxamide], the remaining activity at 10 µM was found to be 14.3%.
As to `Cc1c(C(=O)NC/C=C/c2ccc3nc(Nc4ccc(NC5CCN(C)CC5)c(F)c4)ncc3c2)c(=O)n(Cc2ccc(F)c(F)c2)n1C` [IV-55, 2-(3,4-difluorobenzyl)-N-{(2E)-3-[2-({3-fluoro-4-[(1-methylpiperidin-4-yl)amino]-phenyl}amino)quinazolin-6-yl]prop-2-en-1-yl}-1,5-dimethyl-3-oxo-2,3-dihydro-1H-pyrazole-4-carboxamide], the remaining activity at 10 µM was determined as 16.5%.
The value for `Cc1c(C(=O)NC/C=C/c2cc(OCCN)c3nc(Nc4ccccc4)ncc3c2)c(=O)n(Cc2ccc(F)c(F)c2)n1C` was 19.5%; that for `CCN1CCC(NC(=O)c2ccc(Nc3ncc4cc(C#CCNC(=O)c5c(C)n(C)n(Cc6ccc(F)c(F)c6)c5=O)ccc4n3)cc2)CC1` was 13.7%; that for `COCCN(C)C(=O)c1ccc(Nc2ncc3cc(C#CCNC(=O)c4cncn(Cc5ccc(F)c(F)c5)c4=O)ccc3n2)cc1` was 12.2%.
In the case of `Cc1c(C(=O)NCC#Cc2ccc3c(-c4ccccc4)n[nH]c3c2)c(=O)n(Cc2ccc(F)c(F)c2)n1C` [II-4, 2-(3,4-difluorobenzyl)-1,5-dimethyl-3-oxo-N-[3-(3-phenyl-1H-indazol-6-yl)prop-2-yn-1-yl]-2,3-dihydro-1H-pyrazole-4-carboxamide] it was 16.9%; in that of `Cc1c(C(=O)NCC#Cc2ccc3nc(Nc4ccc(C(=O)NCCCN(C)C)cc4)ncc3c2)c(=O)n(Cc2ccc(F)c(F)c2)n1C`, 13.1%; in that of `Cc1nc[nH]c1/C=C1\C(=O)Nc2cc(/C=C/CNC(=O)c3c(C)n(C)n(Cc4ccccc4)c3=O)ccc21` [I-39, 2-benzyl-1,5-dimethyl-N-[(2E)-3-{(3Z)-3-[(4-methyl-1H-imidazol-5-yl)methylidene]-2-oxo-2,3-dihydro-1H-indol-6-yl}prop-2-en-1-yl]-3-oxo-2,3-dihydro-1H-pyrazole-4-carboxamide], 18.6%.
The value for `CN1CCC(N(C)c2ccc(Nc3ncc4cc(/C=C/CNC(=O)c5cn(C)c(=O)n(Cc6ccc(F)c(F)c6)c5=O)ccc4n3)cc2)CC1` [IV-44, 3-(3,4-difluorobenzyl)-1-methyl-N-{(2E)-3-[2-({4-[methyl(1-methylpiperidin-4-yl)amino]phenyl}amino)quinazolin-6-yl]prop-2-en-1-yl}-2,4-dioxo-1,2,3,4-tetrahydro-pyrimidine-5-carboxamide] was 16.3%; that for `Cc1c(C(=O)NC/C=C/c2ccc3nc(Nc4ccc(N(C)C5CCN(C)CC5)cc4)ncc3c2F)c(=O)n(Cc2ccc(F)c(F)c2)n1C` [IV-36, 2-(3,4-difluorobenzyl)-N-{(2E)-3-[5-fluoro-2-({4-[methyl(1-methylpiperidin-4-yl)amino]phenyl}amino)quinazolin-6-yl]prop-2-en-1-yl}-1,5-dimethyl-3-oxo-2,3-dihydro-1H-pyrazole-4-carboxamide] was 14.2%; that for `Cc1c(C(=O)NC/C=C/c2ccc3nc(Nc4ccc(CN(C)C)cc4)ncc3c2)c(=O)n(Cc2ccccc2)n1C` [IV-19, 2-benzyl-N-{(2E)-3-[2-({4-[(dimethylamino)methyl]phenyl}amino)quinazolin-6-yl]prop-2-en-1-yl}-1,5-dimethyl-3-oxo-2,3-dihydro-1H-pyrazole-4-carboxamide] was 12.6%.
For `NCc1[nH]cnc1/C=C1\C(=O)Nc2cc(/C=C/CNC(=O)c3cncn(Cc4ccc(F)c(F)c4)c3=O)ccc21` [I-49, N-{(2E)-3-[(3Z)-3-{[5-(aminomethyl)-1H-imidazol-4-yl]methylidene}-2-oxo-2,3-dihydro-1H-indol-6-yl]prop-2-en-1-yl}-1-(3,4-difluorobenzyl)-6-oxo-1,6-dihydropyrimidine-5-carboxamide], the remaining activity at 10 µM stood at 12.6%.
In the case of `Cc1c(C(=O)NC/C=C/c2ccc3nc(Nc4ccc(C(=O)NC5CCN(C)CC5)c(F)c4)ncc3c2)c(=O)n(Cc2ccc(F)c(F)c2)n1C` it was 18.1%; in that of `CCNc1ncc2cc(C#CCNC(=O)c3cncn(Cc4ccc(F)c(F)c4)c3=O)ccc2n1`, 17.6%; in that of `COc1cc(/C=C/CNC(=O)c2cncn(Cc3ccc(F)c(F)c3)c2=O)cc2cnc(Nc3ccc(CN(C)C)cc3)nc12` [IV-18, 1-(3,4-difluorobenzyl)-N-{(2E)-3-[2-({4-[(dimethylamino)methyl]phenyl}amino)-8-methoxyquinazolin-6-yl]prop-2-en-1-yl}-6-oxo-1,6-dihydropyrimidine-5-carboxamide], 15%.
With `Cc1c(C(=O)NCC#Cc2ccc3nc(Nc4ccc(C(=O)NC5CCN(C)CC5)c(Cl)c4)ncc3c2)c(=O)n(Cc2ccc(F)c(F)c2)n1C`, the remaining activity at 10 µM was found to be 16.1%.
